From ChEMBL document CHEMBL5034037, “Synthesis, Characterization, and Preclinical Evaluation of a Small-Molecule Prostate-Specific Membrane Antigen-Targeted Monomethyl Auristatin E Conjugate” (J Med Chem, 2021)
“And” between values parts separate entries of the source, which are not always exact repeats. Identical values can stand only once. *1 amine or outer side, *2 acyl side, *3 side chain or, on linkers, in order; H or OH if unused. Where a SMILES comes first, the peptide text is derived from it. [ ]: non-standard residue; d: D form. The star is where a group is joined. GluureaLys(ε-3-ClBenzyl) = O=C(O)CC[C@H](NC(=O)N[C@@H](CCCCN(Cc1cccc(Cl)c1)*)C(=O)O)C(=O)O; Dolaproine = CO[C@@H]([C@@H]1CCCN1)[C@@H](C)C(=O)O; Dil = CC[C@H](C)[C@H](NC)[C@@H](CC(=O)O)OC; X1 = O=C(CCCc1cn(CCCN[*:1])nn1)[*:2]; PABC = O=C(OCc1ccc(N[*:1])cc1)[*:2]; X2 = C[C@@H](N*)[C@@H](O)c1ccccc1; Cit = NC(=O)NCCC[C@H](N)C(=O)O; Suc = O=C(CCC(=O)[*:2])[*:1]; NMeV = CN[C@H](C(=O)O)C(C)C; Ahx = NCCCCCC(=O)O

Columns and labels:
Cytochrome P450 2C8 = biological target: T1, Cytochrome P450 2C8 (Homo sapiens, UniProt P10632); assay: Inhibition of CYP2C8 in human liver microsome using paclitaxel as substrate; format: ADME, microsomes
T1 sequence (P10632 whole entry): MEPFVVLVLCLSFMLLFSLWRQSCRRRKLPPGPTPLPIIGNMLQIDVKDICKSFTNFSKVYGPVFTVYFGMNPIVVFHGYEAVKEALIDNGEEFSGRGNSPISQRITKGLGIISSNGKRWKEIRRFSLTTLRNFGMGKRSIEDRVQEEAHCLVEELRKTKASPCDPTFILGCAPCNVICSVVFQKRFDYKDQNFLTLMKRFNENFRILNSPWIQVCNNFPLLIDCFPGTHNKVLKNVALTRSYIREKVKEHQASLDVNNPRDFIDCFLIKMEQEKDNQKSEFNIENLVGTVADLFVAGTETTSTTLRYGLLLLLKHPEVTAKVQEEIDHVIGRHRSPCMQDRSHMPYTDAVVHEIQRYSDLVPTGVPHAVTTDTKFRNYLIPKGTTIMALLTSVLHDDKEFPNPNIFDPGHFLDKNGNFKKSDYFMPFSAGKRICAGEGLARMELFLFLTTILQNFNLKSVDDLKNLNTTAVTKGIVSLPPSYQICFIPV

Salmonella typhimurium [1] = assay: Mutagenecity in Salmonella typhimurium TA98 in presence of metabolic activation system at 10000 ug/ml by Ames test; format: toxicity, organism-based; conditions: salmonella enterica subsp. enterica serovar typhimurium; dose 10000 µg/ml
[2] = Toxicity in rat assessed as morphological changes in thymus at 150 to 225 microg/kg, iv; format: tissue-based; conditions: in vivo, dose 150-225 µg/kg
Cytochrome P450 2C9 = Cytochrome P450 2C9 (Homo sapiens, UniProt P11712); assay: Drug metabolism assessed as human liver microsome CYP2C9-mediatd metabolism; format: ADME; conditions: microsomes
Chain of Cytochrome P450 2C9 (P11712 whole entry): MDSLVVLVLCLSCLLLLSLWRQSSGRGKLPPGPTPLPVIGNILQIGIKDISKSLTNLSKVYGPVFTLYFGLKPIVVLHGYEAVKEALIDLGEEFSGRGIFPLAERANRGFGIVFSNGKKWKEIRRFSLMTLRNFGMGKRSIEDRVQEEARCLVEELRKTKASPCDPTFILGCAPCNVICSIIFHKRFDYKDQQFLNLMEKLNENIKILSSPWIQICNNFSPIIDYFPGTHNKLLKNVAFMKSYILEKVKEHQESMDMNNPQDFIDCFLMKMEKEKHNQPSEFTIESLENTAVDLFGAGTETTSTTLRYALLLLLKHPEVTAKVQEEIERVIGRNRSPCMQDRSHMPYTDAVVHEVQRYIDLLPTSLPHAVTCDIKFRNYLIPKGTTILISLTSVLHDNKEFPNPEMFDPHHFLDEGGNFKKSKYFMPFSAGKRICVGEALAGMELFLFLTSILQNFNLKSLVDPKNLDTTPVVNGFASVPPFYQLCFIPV

[3] = Toxicity in rabbit assessed as local irritation in testes at 81 to 122 microg/kg, iv; design: species or system Oryctolagus cuniculus; conditions: in vivo, dose 81-122 µg/kg
[4] = Toxicity in rabbit assessed as morphological changes in heart at 81 to 122 microg/kg, iv; format: tissue-based, Oryctolagus cuniculus; conditions: in vivo, dose 81-122 µg/kg
[5] = Toxicity in rat assessed as morphological changes in urinary bladder at 150 to 225 microg/kg, iv; conditions: in vivo, dose 150-225 µg/kg
[6] = Toxicity in rabbit assessed as morphological changes in peritoneum at 81 to 122 microg/kg, iv; format: tissue-based, Oryctolagus cuniculus; conditions: in vivo, dose 81-122 µg/kg
[7] = Toxicity in rabbit assessed as morphological changes in bronchi at 81 to 122 microg/kg, iv; design: species or system Oryctolagus cuniculus; conditions: in vivo, dose 81-122 µg/kg
[8] = Toxicity in rat assessed as morphological changes in lumen of trachea at 150 to 225 microg/kg, iv; format: tissue-based; conditions: in vivo, dose 150-225 µg/kg
[9] = Volume of distribution in Wistar rat at 1.5 mg/kg, iv; format: ADME, organism-based; conditions: in vivo
[10] = Mean residence time in rabbit at 0.81 mg/kg, iv; format: ADME, organism-based, Oryctolagus cuniculus; conditions: in vivo
[11] = Toxicity in rat assessed as morphological changes in pancreas at 150 to 225 microg/kg, iv; format: tissue-based; conditions: in vivo, dose 150-225 µg/kg
Salmonella typhimurium [12] = assay: Mutagenecity in Salmonella typhimurium TA97 without metabolic activation system at 10000 ug/ml by Ames test; format: toxicity, organism-based; conditions: salmonella enterica subsp. enterica serovar typhimurium; dose 10000 µg/ml
[13] = Toxicity in rat assessed as morphological changes in aortic intima at 150 to 225 microg/kg, iv; conditions: in vivo, dose 150-225 µg/kg
[14] = Stability of compound in pH 5.5 assessed as hydrolysis measured within 96 hrs; format: physicochemical; conditions: buffer, pH 5.5, 96 h
[15] = Toxicity in rabbit assessed as morphological changes in duodenum at 81 to 122 microg/kg, iv; format: tissue-based, Oryctolagus cuniculus; conditions: in vivo, dose 81-122 µg/kg
[16] = Elimination rate constant in rabbit at 0.81 mg/kg, iv; format: ADME, organism-based, Oryctolagus cuniculus; conditions: in vivo
[17] = Initial plasma concentration in Wistar rat plasma at 1.5 mg/kg, iv; format: ADME, organism-based
Salmonella typhimurium [18] = assay: Mutagenecity in Salmonella typhimurium TA97 without metabolic activation system at 1 ug/ml by Ames test; format: toxicity, organism-based; conditions: salmonella enterica subsp. enterica serovar typhimurium; dose 1 µg/ml
Cytochrome P450 3A4 = Cytochrome P450 3A4 (Homo sapiens, UniProt P08684); assay: Inhibition of CYP3A4 in human liver microsome using midazolam as substrate; format: ADME, microsomes
Chain of Cytochrome P450 3A4 (P08684 whole entry): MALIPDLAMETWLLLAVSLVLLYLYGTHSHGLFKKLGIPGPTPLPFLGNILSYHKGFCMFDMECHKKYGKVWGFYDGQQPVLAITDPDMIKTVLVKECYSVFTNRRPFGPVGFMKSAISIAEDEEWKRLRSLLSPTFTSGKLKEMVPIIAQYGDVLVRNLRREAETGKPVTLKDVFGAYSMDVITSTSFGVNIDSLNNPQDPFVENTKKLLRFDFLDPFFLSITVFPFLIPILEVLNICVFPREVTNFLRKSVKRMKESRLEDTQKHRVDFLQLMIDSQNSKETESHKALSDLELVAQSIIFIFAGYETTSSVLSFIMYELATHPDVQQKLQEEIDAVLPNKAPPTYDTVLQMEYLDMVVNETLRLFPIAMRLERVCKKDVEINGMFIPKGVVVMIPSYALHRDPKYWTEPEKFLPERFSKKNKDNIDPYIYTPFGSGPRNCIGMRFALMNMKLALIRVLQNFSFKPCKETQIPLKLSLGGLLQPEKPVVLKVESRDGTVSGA

[19] = Toxicity in rat assessed as morphological changes in heart muscle at 150 to 225 microg/kg, iv; format: tissue-based; conditions: in vivo, dose 150-225 µg/kg
[20] = Toxicity in rat assessed as morphological changes in lungs at 150 to 225 microg/kg, iv; conditions: in vivo, dose 150-225 µg/kg
Cytochrome P450 2D6 = Cytochrome P450 2D6 (Homo sapiens, UniProt P10635); assay: Drug metabolism assessed as human liver microsome CYP2D6-mediatd metabolism; format: ADME; conditions: microsomes
Chain of Cytochrome P450 2D6 (P10635 whole entry): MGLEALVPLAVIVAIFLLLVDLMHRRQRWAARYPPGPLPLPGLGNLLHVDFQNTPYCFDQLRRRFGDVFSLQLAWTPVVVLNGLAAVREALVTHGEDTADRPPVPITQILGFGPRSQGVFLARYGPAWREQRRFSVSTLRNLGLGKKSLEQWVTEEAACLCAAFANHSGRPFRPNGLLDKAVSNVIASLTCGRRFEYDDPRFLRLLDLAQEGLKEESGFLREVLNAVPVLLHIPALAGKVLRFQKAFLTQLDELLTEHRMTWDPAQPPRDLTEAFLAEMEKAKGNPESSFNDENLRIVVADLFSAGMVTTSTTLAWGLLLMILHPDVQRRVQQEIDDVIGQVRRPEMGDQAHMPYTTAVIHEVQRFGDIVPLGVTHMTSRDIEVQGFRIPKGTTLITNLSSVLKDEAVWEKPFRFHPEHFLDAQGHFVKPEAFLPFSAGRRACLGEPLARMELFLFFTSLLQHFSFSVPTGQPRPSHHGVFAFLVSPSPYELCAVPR

[21] = Clearance in Wistar rat at 1.5 mg/kg, iv; format: ADME, organism-based; conditions: in vivo
Cathepsin B = Cathepsin B (Homo sapiens, UniProt P07858); assay: Stability of compound at pH 3.6 assessed as recombinant cathepsin B (unknown origin) mediated hydrolysis half life by HPLC-MS analysis; format: ADME
[22] = Toxicity in rat assessed as morphological changes in testes at 150 to 225 microg/kg, iv; conditions: in vivo, dose 150-225 µg/kg
[23] = Acute toxicity in iv dosed ICR mouse assessed as maximum tolerated dose; format: organism-based; conditions: in vivo, read-out: MNTD
[24] = Toxicity in rat assessed as morphological changes in mucosa of thyroid gland at 150 to 225 microg/kg, iv; format: tissue-based; conditions: in vivo, dose 150-225 µg/kg
[25] = Acute toxicity in iv dosed Wistar rat assessed as median mortality dose; format: organism-based; conditions: in vivo
[26] = Toxicity in rabbit assessed as thrombosis at 81 to 122 microg/kg, iv; design: species or system Oryctolagus cuniculus; conditions: in vivo, dose 81-122 µg/kg
CWR22R = assay: Antitumor activity against human 22Rv1 cells xenografted in mouse assessed as tumour growth inhibition at 0.3 mg/kg, ip daily treated for 5 days after 18 days of tumor implantation measured upto 10 days; format: functional; conditions: 22Rv1, ip, 120 h, time 5 day, read-out: TGI
Salmonella typhimurium [27] = assay: Mutagenecity in Salmonella typhimurium TA100 without metabolic activation system at 10 ug/ml by Ames test; format: toxicity, organism-based; conditions: salmonella enterica subsp. enterica serovar typhimurium; dose 10 µg/ml
Salmonella typhimurium [28] = assay: Mutagenecity in Salmonella typhimurium TA100 in presence of metabolic activation system at 100 ug/ml by Ames test; format: toxicity, organism-based; conditions: salmonella enterica subsp. enterica serovar typhimurium; dose 100 µg/ml
[29] = Toxicity in rat assessed as morphological changes in adrenal medulla at 150 to 225 microg/kg, iv; conditions: in vivo, dose 150-225 µg/kg
[30] = Toxicity in rat assessed as morphological changes in heart valve at 150 to 225 microg/kg, iv; format: tissue-based; conditions: in vivo, dose 150-225 µg/kg
Salmonella typhimurium [31] = assay: Mutagenecity in Salmonella typhimurium TA98 in presence of metabolic activation system at 1000 ug/ml by Ames test; format: toxicity, organism-based; conditions: salmonella enterica subsp. enterica serovar typhimurium; dose 1000 µg/ml
Salmonella typhimurium [32] = assay: Mutagenecity in Salmonella typhimurium TA100 without metabolic activation system at 100 ug/ml by Ames test; format: toxicity, organism-based; conditions: salmonella enterica subsp. enterica serovar typhimurium; dose 100 µg/ml
[33] = Volume of distribution in rabbit at 0.81 mg/kg, iv; format: ADME, organism-based, Oryctolagus cuniculus; conditions: in vivo
Salmonella typhimurium [34] = assay: Mutagenecity in Salmonella typhimurium TA100 in presence of metabolic activation system at 1000 ug/ml by Ames test; format: toxicity, organism-based; conditions: salmonella enterica subsp. enterica serovar typhimurium; dose 1000 µg/ml
[35] = Chronic toxicity in rabbit assessed as increase in stomach weight at 5.4 microg/kg, iv; format: tissue-based, Oryctolagus cuniculus; conditions: in vivo, 0.0054 mg/kg, dose 5.4 µg/kg

Q: Which IC50 (Cytochrome P450 2C8) does the source give for `CC[C@H](C)[C@@H]([C@@H](CC(=O)N1CCC[C@H]1[C@H](OC)[C@@H](C)C(=O)N[C@H](C)[C@@H](O)c1ccccc1)OC)N(C)C(=O)[C@@H](NC(=O)[C@H](C(C)C)N(C)C(=O)OCc1ccc(NC(=O)[C@H](CCCNC(N)=O)NC(=O)[C@@H](NC(=O)CCCc2cn(CCCNC(=O)[C@H](Cc3ccc(O)cc3)NC(=O)[C@H](Cc3ccccc3)NC(=O)CCC(=O)NCCCCCC(=O)N(CCCC[C@H](NC(=O)N[C@@H](CCC(=O)O)C(=O)O)C(=O)O)Cc3cccc(Cl)c3)nn2)C(C)C)cc1)C(C)C` ({GluureaLys(ε-3-ClBenzyl)-Ahx-Suc}-FY[X1]V[Cit][PABC][NMeV]V[Dil][Dolaproine]-X2) here?
A: > 25 µM

Q: And the Activity (Salmonella typhimurium [1])?
A: Non-Toxic

Q: What about the Activity [2] of the same compound?
A: Non-Toxic

Q: What about the Drug metabolism (Cytochrome P450 2C9) of the same compound?
A: Metabolite_Notdetected

Q: And the Activity [3]?
A: Non-Toxic

Q: And the Activity [4]?
A: Non-Toxic

Q: What about the Activity [5] of the same compound?
A: Non-Toxic

Q: And the Activity [6]?
A: Non-Toxic

Q: What about the Activity [7] of the same compound?
A: Non-Toxic

Q: And the Activity [8]?
A: Non-Toxic

Q: What about the Vd [9] of the same compound?
A: 0.126 L/kg

Q: And the MRT [10]?
A: 3.4 h

Q: And the Activity [11]?
A: Non-Toxic

Q: And the Activity (Salmonella typhimurium [12])?
A: Non-Toxic

Q: And the Activity [13]?
A: Non-Toxic

Q: And the Stability [14]?
A: Stable

Q: What about the Activity [15] of the same compound?
A: Non-Toxic

Q: And the k el [16]?
A: 4.72e-05 s⁻¹

Q: What about the C0 [17] of the same compound?
A: 31000 ng/mL

Q: And the Activity (Salmonella typhimurium [18])?
A: Non-Toxic

Q: And the IC50 (Cytochrome P450 3A4)?
A: 11.2 µM

Q: And the Activity [19]?
A: Non-Toxic

Q: What about the Activity [20] of the same compound?
A: Non-Toxic

Q: And the Drug metabolism (Cytochrome P450 2D6)?
A: Metabolite_Notdetected

Q: And the clearance [21]?
A: 0.317 mL/min/kg

Q: And the half-life (Cathepsin B)?
A: 0.417 h

Q: And the Activity [22]?
A: Non-Toxic

Q: What about the MTD [23] of the same compound?
A: 3 mg/kg

Q: And the Activity [24]?
A: Non-Toxic

Q: What about the LD50 [25] of the same compound?
A: 4.9 mg/kg and 2.2 µmol/kg

Q: What about the Activity [26] of the same compound?
A: Toxic

Q: What about the inhibition in vivo at 0.3 mg/kg (CWR22R) of the same compound?
A: 70%

Q: And the Activity (Salmonella typhimurium [27])?
A: Non-Toxic

Q: What about the Activity (Salmonella typhimurium [28]) of the same compound?
A: Non-Toxic

Q: What about the Activity [29] of the same compound?
A: Non-Toxic

Q: And the Activity [30]?
A: Non-Toxic

Q: What about the Activity (Salmonella typhimurium [31]) of the same compound?
A: Non-Toxic

Q: What about the Activity (Salmonella typhimurium [32]) of the same compound?
A: Non-Toxic

Q: What about the Vd [33] of the same compound?
A: 0.158 L/kg

Q: What about the Activity (Salmonella typhimurium [34]) of the same compound?
A: Non-Toxic

Q: And the Activity [35]?
A: Toxic
